Test results published in US20100249145A1, “Inhibitors of VEGF Receptor and HGF Receptor Signaling” (Methylgene, Inc., priority 2005, published 2010).
pIC50: −log10 of the molar value. Where two headings read alike, the source gives them in different places.

How the values were obtained:
[1] = target: T1, VEGF receptor KDR (Homo sapiens, UniProt P35968); assay: In vitro receptor tyrosine kinase assay (DELFIA), VEGF receptor KDR; assay type: biochemical; details: ATP 0.6 uM, enzyme 5 nM
T1 construct: made in house; host or cells: Sf9 cells (Spodoptera frugiperda), recombinant baculovirus
T1 sequence (P35968 806-1356): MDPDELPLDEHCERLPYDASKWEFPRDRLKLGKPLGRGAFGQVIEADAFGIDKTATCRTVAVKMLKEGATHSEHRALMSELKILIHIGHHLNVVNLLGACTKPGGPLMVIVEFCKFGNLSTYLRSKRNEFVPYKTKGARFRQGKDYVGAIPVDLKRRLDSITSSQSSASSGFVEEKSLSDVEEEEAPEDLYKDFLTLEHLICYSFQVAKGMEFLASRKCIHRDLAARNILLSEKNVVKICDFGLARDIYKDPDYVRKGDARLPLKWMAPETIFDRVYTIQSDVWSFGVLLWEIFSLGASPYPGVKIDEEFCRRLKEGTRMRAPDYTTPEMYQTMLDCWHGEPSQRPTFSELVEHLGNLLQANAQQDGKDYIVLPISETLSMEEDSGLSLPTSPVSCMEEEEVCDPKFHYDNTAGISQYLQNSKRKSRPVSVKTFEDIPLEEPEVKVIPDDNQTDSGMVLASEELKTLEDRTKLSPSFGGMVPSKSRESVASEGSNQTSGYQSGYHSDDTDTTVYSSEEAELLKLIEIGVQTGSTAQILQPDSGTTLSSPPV
Description: In Vitro Receptor Tyrosine Kinase Assays (c-Met/HGF receptor and VEGF Receptor KDR)
In the case of VEGF receptor KDR a 1.6-kb cDNA corresponding to the catalytic domain of VEGFR2 or KDR (Genbank accession number AF035121 amino acid 806 to 1356) was cloned into the Pst I site of the pDEST20 Gateway vector (Invitrogen) for the production of a GST-tagged version of that enzyme.
The GST-VEGFR2806-1356 protein was expressed in Sf9 cells (Spodoptera frugiperda) upon infection with recombinant baculovirus construct.
The supernatant was loaded onto a GST-agarose column (Sigma) equilibrated with PBS pH 7.3. Following a four column volume (CV) wash with PBS pH 7.3+1% Triton X-100 and 4 CV wash with buffer B (50 mM Tris pH 8.0, 20% glycerol and 100 mM NaCl), bound proteins were step eluted with 5 CV of buffer B supplemented with 5 mM DTT and 15 mM glutathion. […] Final GST-VEGFR2806-1356 protein preparations concentrations were about 0.7 mg/ml with purity approximating 70%.

[2] = test system: DU145; assay: DU145 scattering inhibition (HGF dependent scattering); assay type: cell-based; details: Homo sapiens, DU-145, Table 31, read-out: DU145 scattering inhib IC50
Description: (§1) HGF has well known activity in terms of inducing scattering and migration (wound healing) (Wells et al., Cell Motil Cytoskeleton. 2005 November 62(3):180-94; Miura et al., Urology 2001 December 58(6):1064-9; Nishimura et al., Int J. Urol. 1998 May 5(3):276-81; Wang et al., Mol Cancer Ther. 2003 November; 2(11):1085-92; and Christensen et al., Cancer Res. 2003 Nov. 1; 63(21):7345-55).

[3] = test system: A549; assay: A549 wound healing inhibition (HGF dependent migration); assay type: cell-based; details: Homo sapiens, Table 31, read-out: A549 wound healing inbib IC50
Description: as §1

[4] = target: T2, recombinant human c-Met/HGF receptor (Homo sapiens, UniProt P08581); assay: In vitro receptor tyrosine kinase assay (DELFIA), c-Met/HGF receptor; assay type: biochemical; details: ATP 10 uM, enzyme 25 nM
T2 construct: His tag (histidine tag from pBlueBacHis2A); made in house; host or cells: Hi-5 cells (Trichoplusia ni), recombinant baculovirus
T2 sequence (P08581 1078-1337): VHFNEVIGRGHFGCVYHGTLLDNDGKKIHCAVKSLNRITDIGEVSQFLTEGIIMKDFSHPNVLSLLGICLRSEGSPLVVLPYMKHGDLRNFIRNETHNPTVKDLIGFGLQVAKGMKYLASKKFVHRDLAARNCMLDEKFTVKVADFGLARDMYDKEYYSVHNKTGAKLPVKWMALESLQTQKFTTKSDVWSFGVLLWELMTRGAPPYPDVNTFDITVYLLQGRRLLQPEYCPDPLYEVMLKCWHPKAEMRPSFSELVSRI

[5] = Table 30, read-out: VEGF(enz.) (IC50)
[6] = Table 30, read-out: C-Met (enz.) (IC50)

SMILES | pIC50 [1, 5] | pIC50 [2] | pIC50 [3] | pIC50 ([1]; Table 31, read-out: VEGFR IC50) | pIC50 ([4]; Table 31, read-out: CMet ic50) | pIC50 [4, 6]
CC(O)c1cc2nccc(Oc3ccc(NC(=S)NC(=O)Cc4ccccc4)cc3F)c2s1 (stereo not drawn) [Example 20, 1-(4-(2-(1-Hydroxyethyl)thieno[3,2-b]pyridin-7-yloxy)-3-fluorophenyl)-3-(2-phenylacetyl)thiourea] | < 6.30 | – | – | – | – | –
COCCNCc1ccc(-c2cc3nccc(Oc4ccc(NC(=S)NC(=O)Cc5ccc(F)cc5)cc4F)c3s2)nc1 | – | > 6.00 | > 6.00 | > 7.30 | – | –
COCCNCc1ccc(-c2cc3nccc(Oc4ccc(NC(=S)NC(=O)Cc5ccc(F)cc5)cc4F)c3s2)cc1 | – | > 6.00 | > 6.00 | > 7.30 | > 7.30 | –
O=C(Cc1ccccc1)NC(=S)Nc1ccc(Oc2ccnc3cc(-c4cccs4)sc23)c(F)c1 [Example 16] | > 7.30 | – | – | – | – | –
COc1ccccc1CC(=O)NC(=S)Nc1ccc(Oc2ccnc3cc(-c4cn(CC(N)=O)cn4)sc23)c(F)c1 | – | 5.30 to 6.00 | < 5.00 | 6.60 to 7.30 | 6.60 to 7.30 | –
Cn1ccnc1-c1cc2nccc(Oc3ccc(NC(=S)NC(=O)Cc4ccc(F)cc4)cc3F)c2s1 | – | > 6.00 | > 6.00 | > 7.30 | > 7.30 | –
CCn1cnc(-c2cc3nccc(Oc4ccc(NC(=S)NC(=O)Cc5ccccc5C)cc4F)c3s2)c1 [drawing 441] | – | > 6.00 | > 6.00 | > 7.30 | > 7.30 | –
C#Cc1cc(F)ccc1CC(=O)NC(=S)Nc1ccc(Oc2ccnc3cc(-c4cn(CC)cn4)sc23)c(F)c1 | – | > 6.00 | > 6.00 | > 7.30 | > 7.30 | –
CNC(=O)c1cc2ncnc(Oc3ccc(NC(=S)NC(=O)Cc4ccccc4)cc3F)c2s1 [Example 25, 1-(4-(6-(Methylcarbamoyl)thieno[3,2-d]pyrimidin-4-yloxy)-3-fluorophenyl)-3-(2-phenylacetyl)thiourea] | 6.60 to 7.30 | – | – | – | – | 6.60 to 7.30
NC(=O)c1cc2ncnc(Oc3ccc(NC(=S)NC(=O)Cc4ccccc4)cc3F)c2s1 [Example 27, 1-(4-(6-Carbamoylthieno[3,2-d]pyrimidin-4-yloxy)-3-fluorophenyl)-3-(2-phenylacetyl)thiourea] | 6.60 to 7.30 | – | – | – | – | 6.60 to 7.30
Cn1ccc2ncnc(Oc3ccc(NC(=S)NC(=O)Cc4ccccc4)cc3F)c21 [Example 28, 1-(4-(5-Methyl-5H-pyrrolo[3,2-d]pyrimidin-4-yloxy)-3-fluorophenyl)-3-(2-phenylacetyl)thiourea] | < 6.30 | – | – | – | – | 6.60 to 7.30
C#Cc1ccccc1CC(=O)NC(=S)Nc1ccc(Oc2ccnc3cc(-c4ccc(CNCCOC)cn4)sc23)c(F)c1 | – | > 6.00 | > 6.00 | > 7.30 | > 7.30 | –
CS(=O)(=O)c1ccc(-c2cc3nccc(Oc4ccc(NC(=S)NC(=O)Cc5ccc(F)cc5)cc4F)c3s2)cc1 | – | > 6.00 | > 6.00 | 6.60 to 7.30 | > 7.30 | –
CN1CC=C(c2cc3nccc(Oc4ccc(NC(=S)NC(=O)Cc5ccccc5)cc4F)c3s2)CC1 | – | > 6.00 | > 6.00 | 6.30 to 6.60 | > 7.30 | –
O=C(Cc1ccccc1)NC(=S)Nc1ccc(Oc2ccnc3cc(-c4cccc[n+]4[O-])sc23)c(F)c1 | – | > 6.00 | > 6.00 | 6.60 to 7.30 | > 7.30 | –
Cc1ccccc1CC(=O)NC(=S)Nc1ccc(Oc2ccnc3cc(-c4nccn4C)sc23)c(F)c1 | – | > 6.00 | > 6.00 | > 7.30 | > 7.30 | –
O=C(Cc1ccccc1)NC(=S)Nc1ccc(Oc2ccnc3cc(-c4cn(CCN5CCCC5)cn4)sc23)c(F)c1 | – | > 6.00 | 5.00 to 5.30 | > 7.30 | > 7.30 | –
C#Cc1cc(F)ccc1CC(=O)NC(=S)Nc1ccc(Oc2ccnc3cc(-c4nccn4C)sc23)c(F)c1 | – | > 6.00 | > 6.00 | > 7.30 | > 7.30 | –
CCn1cnc(-c2cc3nccc(Oc4ccc(NC(=S)NC(=O)Cc5ccc(F)cc5)cc4F)c3s2)c1 | – | > 6.00 | > 6.00 | > 7.30 | > 7.30 | –
